The NIST ThermoML archive (doi:10.1021/je034224j)

Assay: xn = mol fraction of the nth substance listed

CCOC(C)=O [ethyl acetate] + O=C=O
Settings	mass density [kg/m3]
333 K, 5360 kPa, Gas, x2 = 0.1231	987.7
333 K, 5360 kPa, Liquid, x2 = 0.5727	865.7
333 K, 5960 kPa, Gas, x2 = 0.1544	986
333 K, 5960 kPa, Liquid, x2 = 0.6283	836.3
333 K, 6470 kPa, Gas, x2 = 0.1698	986.1
333 K, 6470 kPa, Liquid, x2 = 0.6584	814.8
333 K, 7570 kPa, Gas, x2 = 0.2068	978.7
333 K, 7570 kPa, Liquid, x2 = 0.7586	785.3
333 K, 8460 kPa, Gas, x2 = 0.2731	973.6
333 K, 8460 kPa, Liquid, x2 = 0.8057	746.7
333 K, 8970 kPa, Gas, x2 = 0.3708	969.6
333 K, 8970 kPa, Liquid, x2 = 0.8421	720.4
353 K, 3960 kPa, Gas, x2 = 0.0666	980.2
353 K, 3960 kPa, Liquid, x2 = 0.5532	923.2
353 K, 5060 kPa, Gas, x2 = 0.0935	978.3
353 K, 5060 kPa, Liquid, x2 = 0.5767	920.9
353 K, 6270 kPa, Gas, x2 = 0.127	973.9
353 K, 6270 kPa, Liquid, x2 = 0.6075	919.6
353 K, 7470 kPa, Gas, x2 = 0.1822	967.8
353 K, 7470 kPa, Liquid, x2 = 0.627	901.7
353 K, 8470 kPa, Gas, x2 = 0.22	966.1
353 K, 8470 kPa, Liquid, x2 = 0.6668	854
353 K, 9470 kPa, Gas, x2 = 0.2634	956
353 K, 9470 kPa, Liquid, x2 = 0.7587	746.5
373 K, 5690 kPa, Gas, x2 = 0.0819	964.1
373 K, 5690 kPa, Liquid, x2 = 0.4697	758.8
373 K, 6460 kPa, Gas, x2 = 0.1202	961.2
373 K, 6460 kPa, Liquid, x2 = 0.5001	784.3
373 K, 7960 kPa, Gas, x2 = 0.1682	955.5
373 K, 7960 kPa, Liquid, x2 = 0.5505	790.5
373 K, 9470 kPa, Gas, x2 = 0.2401	944
373 K, 9470 kPa, Liquid, x2 = 0.6046	781.7
373 K, 10570 kPa, Gas, x2 = 0.352	923.9
373 K, 10570 kPa, Liquid, x2 = 0.6715	788.4
373 K, 11370 kPa, Gas, x2 = 0.4692	913.5
373 K, 11370 kPa, Liquid, x2 = 0.7259	780.3
393 K, 5060 kPa, Gas, x2 = 0.055	951.6
393 K, 5060 kPa, Liquid, x2 = 0.455	713.7
393 K, 5460 kPa, Gas, x2 = 0.0849	941.9
393 K, 5460 kPa, Liquid, x2 = 0.4831	744.8
393 K, 6970 kPa, Gas, x2 = 0.1218	932.1
393 K, 6970 kPa, Liquid, x2 = 0.5129	771.1
393 K, 8480 kPa, Gas, x2 = 0.1766	917.3
393 K, 8480 kPa, Liquid, x2 = 0.545	804.3
393 K, 9970 kPa, Gas, x2 = 0.255	895.6
393 K, 9970 kPa, Liquid, x2 = 0.5744	791.8
393 K, 11470 kPa, Gas, x2 = 0.4	856.8
393 K, 11470 kPa, Liquid, x2 = 0.6237	755.8
393 K, 11970 kPa, Gas, x2 = 0.6025	846.6
393 K, 11970 kPa, Liquid, x2 = 0.6629	719.7

CCOC(=O)CC [ethyl propanoate] + O=C=O
Liquid
Settings	mass density [kg/m3]
313 K, 2960 kPa, x2 = 0.5818	971
313 K, 3960 kPa, x2 = 0.6881	973.6
313 K, 4460 kPa, x2 = 0.7509	965.9
313 K, 4960 kPa, x2 = 0.799	960.9
313 K, 5460 kPa, x2 = 0.8301	950.9
313 K, 5970 kPa, x2 = 0.8675	923.3
313 K, 6270 kPa, x2 = 0.8871	902.4
333 K, 2960 kPa, x2 = 0.4093	900.2
333 K, 3460 kPa, x2 = 0.4733	905.3
333 K, 4460 kPa, x2 = 0.5479	902.9
333 K, 5460 kPa, x2 = 0.6214	895.5
333 K, 5960 kPa, x2 = 0.6608	886.6
333 K, 6660 kPa, x2 = 0.7224	868.7
333 K, 7260 kPa, x2 = 0.7819	842.2
353 K, 2960 kPa, x2 = 0.3557	864.4
353 K, 3860 kPa, x2 = 0.4093	864.9
353 K, 4960 kPa, x2 = 0.4746	869.1
353 K, 5960 kPa, x2 = 0.5459	855.1
353 K, 6960 kPa, x2 = 0.6173	854
353 K, 7970 kPa, x2 = 0.6847	850.5
353 K, 8870 kPa, x2 = 0.7529	824.3
373 K, 2960 kPa, x2 = 0.3282	817
373 K, 4460 kPa, x2 = 0.3961	812.4
373 K, 5960 kPa, x2 = 0.4965	802.1
373 K, 7470 kPa, x2 = 0.5422	788.2
373 K, 8970 kPa, x2 = 0.6332	766.7
373 K, 10570 kPa, x2 = 0.7127	735.7
373 K, 10970 kPa, x2 = 0.7391	720.9
